Patent US8372982B2, “Fungicidal N-(Phenylcycloalkyl)carboxamide, N-(Benzylcycloalkyl)carboxamide and thiocarboxamide derivatives” (Bayer Cropscience AG, priority 2009, dated 2013)

System: Leptosphaeria nodosum
Test: In vivo comparative test on Leptosphaeria nodoruin (wheat)/preventive
Conditions: dose of 500 ppm, preventive, evaluated 10 days after the inoculation
Description: Solvent: 49 parts by weight of N,N-dimethylacetamide Emulsifier: 1 part by weight of alkylaryl polyglycol ether To produce a suitable preparation of active compound, 1 part by weight of active compound or the compound combination is mixed with the stated amounts of solvent and emulsifier, and the concentrate is diluted with water to the desired concentration. To test for protective activity, young plants are sprayed with a preparation of active compound or active compound combination at the stated rate of application. After the spray coating has dried on, the plants are sprayed with a spore suspension of Leptosphaeria nodosum. The plants remain for 48 hours in an incubation cabinet at 20° C. and a relative atmospheric humidity of 100%. The plants are placed in a greenhouse at a temperature of approximately 15° C. and a relative atmospheric humidity of approximately 80%. The test is evaluated 10 days after the inoculation. 0% means an efficacy which corresponds to that of the control, while an efficacy of 100% means that no disease is observed. […]

## Cn1cc(C(=O)N[C@@H]2C[C@@H]2c2ccc(Cl)cc2)c(C(F)F)n1 (relative stereo) [Example 1.001, cis-N-[2-(4-chlorophenyl)cyclopropyl]-3-(difluoro-methyl)-1-methyl-1H-pyrazole-4-carboxamide]
  disease control: less than 10%
